Structures are written as SMILES.

For data set [1], the target named is T1, purified hACOD1 (Homo sapiens, UniProt A6NK06).
T1 construct: made in house
T1 sequence (A6NK06 1-481): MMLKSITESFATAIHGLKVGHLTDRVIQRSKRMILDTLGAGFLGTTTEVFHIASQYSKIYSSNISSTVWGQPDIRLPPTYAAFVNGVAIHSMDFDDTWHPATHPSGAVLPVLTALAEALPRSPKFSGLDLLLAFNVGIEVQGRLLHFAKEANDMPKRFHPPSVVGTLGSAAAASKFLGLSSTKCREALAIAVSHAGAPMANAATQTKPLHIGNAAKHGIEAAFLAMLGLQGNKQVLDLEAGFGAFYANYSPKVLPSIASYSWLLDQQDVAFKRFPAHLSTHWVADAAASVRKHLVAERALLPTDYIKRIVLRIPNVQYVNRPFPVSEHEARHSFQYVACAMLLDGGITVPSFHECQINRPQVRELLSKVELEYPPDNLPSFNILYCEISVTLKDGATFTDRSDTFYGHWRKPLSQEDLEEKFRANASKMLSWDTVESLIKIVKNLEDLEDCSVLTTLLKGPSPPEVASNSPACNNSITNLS
Put plainly: hACOD1 enzyme activity in vitro assay, competitive inhibition. It is filed as biochemical. The note with it: purified hACOD1, substrate cis-aconitate, competitive inhibition fit, pH 6.5, 37° C.; read-out: Inhibition constant (Ki). As for the experimental part: The activity of purified hACOD1 was measured in the presence of increasing concentrations of substrate and the five inhibitors. The data were globally fitted to the Michaelis-Menten equation for competitive inhibition.
The activity of purified hACOD1 was measured in the presence of increasing concentrations of substrate and the five inhibitors. The data was globally fitted to the Michaelis-Menten equation for competitive inhibition.
The compounds were dissolved in water, neutralized with NaOH and stored at −20° C. For the assay, 125 μL 0.2 M sodium phosphate buffer, pH 6.5, was mixed on ice with 5 μL enzyme, 10 μl inhibitor (or 10 μl water) and 10 μL substrate (cis-aconitic acid). The following combinations of enzyme amount and substrate concentration were used for CA: 2 μg enzyme and 0.1 mM substrate, 2 μg and 0.3 mM, 3 […] and 1 mM, 5 μg and 3.0/10.0 mM. For the other inhibitors, 2 μg enzyme and 0.1/0.2/0.5 mM substrate, 3 μg and 1.0/2.0 mM, 5 μg and 5.0/10.0 mM. Incubation for 10 min at 37° C. was immediately followed by heat inactivation at 95° C. for 3 min. Protein precipitate was pelleted by centrifugation for 1 h. Supernatants were acidified with 100 μL 100 mM H3PO4.

Data set [2] deals with T2, ACOD1 (Homo sapiens, UniProt A6NK06).
T2 construct: THP1 were differentiated with PMA and then stimulated with LPS/IFNγ for 24 hours; endogenous in cells; host or cells: THP1 (PMA-differentiated, LPS/IFNγ-stimulated)
T2 sequence (A6NK06 1-481): T1 sequence (A6NK06 1-481)
Put plainly: Cellular ACOD1 inhibition: intracellular itaconate in PMA-differentiated THP1 stimulated with LPS/IFNγ (HPLC-MS/MS). It is filed as cell-based. Particulars: compared with citraconic acid. Here is the method:
FIG. 9: Ethyl homologue of the methyl group of citraconate enhances ACOD1 inhibition in a cellular assay. […] ACOD1 activity was assessed by measuring intracellular itaconate concentrations by HPLC-MS/MS as described in (Winterhoff,
Chen et al Metabolites 2021). IC50=inhibitory concentration 50%; CC50 =cytotoxic concentration 50%; SI=selectivity index=CC50/IC50.
Methylation of the […] of citraconate thus enhances ACOD1 inhibition in a cellular assay. […] ACOD1 activity was assessed by measuring intracellular itaconate concentrations by HPLC-MS/MS as described in Winterhoff, Chen et al (Metabolites 2021).

The test system of data set [3] is mitochondrial ROS in NRF2−/− human vascular endothelial cells. Put plainly: Mitochondrial ROS in human vascular endothelial cells infected with human coronavirus 229E (flow cytometry). The format is cell-based. Particulars: NRF2−/− cells infected with human coronavirus 229E, 24 h after infection, co-incubation. As for the experimental part: FIG. 10: (Z)-2-Ethylbut-2-enedioic acid maintains anti-oxidative properties. Wild-type or NRF2−/−human vascular endothelial cells were infected with human coronavirus 229E (a low pathogenic, seasonal strain), and mitochondrial ROS levels were measured by flow cytometry 24 h after infection.
Maintenance of anti-ROS activity of (Z)-2-ethylbut-2-enedioic acid (“ethylcitraconic acid”; Formula VIII) is shown in a model of infection of cells by a human coronavirus 229E, a low pathogenic CoV strain. Despite the methylation of CA evident in Formel VIII (a methylation that could theoretically lead to loss of electrophilicity), the compound (Z)-2-Ethylbut-2-enedioic acid maintains anti-oxidative properties. Wild-type or NRF2−/−human vascular endothelial cells were infected with human coronavirus 229E (a low pathogenic, seasonal strain), and mitochondrial ROS levels were measured by flow cytometry 24 h after infection.

For data set [4], the system named is CXCL10 mRNA (encoding IP-10). In words: CXCL10 mRNA expression in influenza A virus-infected dTHP1 cells (RT-qPCR). It is filed as cell-based, human. Particulars: dTHP1 infected with influenza A virus PR8M, MOI 1, 12 h after infection; increasing concentrations; compared among CA, IA, MA. For orientation: Real-time PCR tracks product formation cycle by cycle.
For data set [5], the system named is reactive oxygen species (ROS) in dTHP1 cells. In words: Mitochondrial ROS in influenza A virus-infected dTHP1 cells (MitoSox Red, flow cytometry). It is filed as cell-based, human. Particulars: dTHP1 infected with influenza A virus, 10 mM compound, 12 h after infection. As for the experimental part: dTHP1 Cells were seeded at a density of 2×10^5 cells per well in a 12-well plate and infected with influenza A virus at an MOI of 1. Mitochondrial ROS were measured 12 h after infection. Cells were incubated for 5 min with medium containing 5 μM of MitoSox Red (mitochondrial superoxide indicator, Invitrogen) and were washed with PBS. Cells were then resuspended in cold PBS and mitochondrial ROS was measured via the phycoerythrin (PE) channel using a BD™ LSR-II flow cytometer.
As can be observed in FIG. 2, dTHP1 cells were infected with influenza A virus, incubated with 10 mM CA, IA, or MA, and reactive oxygen species (ROS) were measured by flow cytometry.
(In flow cytometry, cells or beads pass a laser one at a time.)

For data set [6], the system named is phosphorylated STAT1. Put plainly: STAT1 phosphorylation immunoblot in influenza A virus-infected A549 and dTHP1 cells. It is filed as cell-based, human. Particulars: A549 and dTHP1 cells infected with influenza A virus; anti-P-STAT1 immunoblot. Here is the method: A549 and dTHP1 cells were infected with influenza A virus and treated with CA, IA or MA.
2×10^5 dTHP1 cells were infected with influenza A virus (H1N1) strain PR8M at a multiplicity of infection of 1. 12 h after infection, cells were washed in buffer, pelleted, and protein extracts resolved by gel electrophoresis and transferred to a nylon membrane. Bands corresponding to phosphorylated Stat1 protein were visualized by enhanced chemiluminescense using specific anti-P-STAT1 primary antibody and […] as secondary antibody.
As can be observed from FIG. 3, A549 and dTHP1 cells were infected with influenza A virus and treated with CA, IA or MA. […] STAT1 phosphorylation is known to be associated with inflammation, and thus CA represents an effective substance in reducing inflammation.

The subject of data set [7] is Nrf2 signaling (AKR1B10 mRNA). Put plainly: Induction of Nrf2 signaling: AKR1B10 mRNA in HaCaT cells (RT-qPCR). The note with it: 12 hours treatment. The format is cell-based, human. As for the experimental part:
Induction was greatest by CA, intermediate by IA and lowest by MA.
The immortalized human keratinocyte cell line HaCaT was grown in RPMI 1640 medium (GIBCO Life Technologies, Karlsruhe, Germany) supplemented with 30% FCS, 100 μg/mL pen/strep, 500 μg/mL gentamycin and 1% each Glutamax and nonessential amino acid solution (NEAA; GIBCO Life Technologies, Karlsruhe, Germany). Cells were treated with the indicated concentrations of itaconate, mesaconate and citraconate for 12 hours. Cells were then washed in buffer, pelleted, and RNA was extracted for subsequent analysis of expression of AKR1B10, which is specifically activated by Nrf2 signaling in this cell line. AKR1B10 mRNA expression was determined by RT-qPCR.
Induction was greatest by CA compared to both IA and MA.

Data set [8] deals with influenza A virus (H1N1/34/PR/8M). It is filed as cell-based.
Data set [9] addresses succinate dehydrogenase (SDH) (Homo sapiens, UniProt P31040). Put plainly: Preliminary data on binding to succinate dehydrogenase.

succinate dehydrogenase (SDH), sequence (P31040 43-664): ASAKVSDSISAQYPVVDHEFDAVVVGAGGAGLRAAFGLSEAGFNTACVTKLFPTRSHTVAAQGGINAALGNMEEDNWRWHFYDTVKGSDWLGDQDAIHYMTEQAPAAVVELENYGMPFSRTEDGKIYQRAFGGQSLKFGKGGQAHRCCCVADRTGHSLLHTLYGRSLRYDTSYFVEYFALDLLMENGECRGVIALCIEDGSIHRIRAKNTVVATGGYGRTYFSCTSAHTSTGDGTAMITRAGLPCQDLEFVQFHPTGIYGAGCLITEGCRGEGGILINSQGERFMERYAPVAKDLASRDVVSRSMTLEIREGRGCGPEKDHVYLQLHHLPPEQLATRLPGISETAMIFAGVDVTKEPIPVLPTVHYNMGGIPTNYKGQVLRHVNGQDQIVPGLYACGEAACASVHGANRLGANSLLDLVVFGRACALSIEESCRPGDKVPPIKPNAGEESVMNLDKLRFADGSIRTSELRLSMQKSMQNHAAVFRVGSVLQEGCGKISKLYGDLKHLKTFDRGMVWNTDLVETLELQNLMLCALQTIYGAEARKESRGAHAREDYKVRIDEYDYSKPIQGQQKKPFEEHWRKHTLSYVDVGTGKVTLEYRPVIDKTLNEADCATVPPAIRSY
succinate dehydrogenase (SDH), sequence (P21912 29-280 partner): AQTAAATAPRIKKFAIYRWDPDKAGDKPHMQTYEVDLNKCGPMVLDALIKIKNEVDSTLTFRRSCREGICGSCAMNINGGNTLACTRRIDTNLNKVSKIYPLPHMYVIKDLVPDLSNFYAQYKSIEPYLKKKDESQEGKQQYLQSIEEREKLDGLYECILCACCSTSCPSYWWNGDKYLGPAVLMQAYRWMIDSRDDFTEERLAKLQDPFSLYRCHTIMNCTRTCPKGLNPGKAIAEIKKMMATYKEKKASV
succinate dehydrogenase (SDH), sequence (Q99643 30-169 partner): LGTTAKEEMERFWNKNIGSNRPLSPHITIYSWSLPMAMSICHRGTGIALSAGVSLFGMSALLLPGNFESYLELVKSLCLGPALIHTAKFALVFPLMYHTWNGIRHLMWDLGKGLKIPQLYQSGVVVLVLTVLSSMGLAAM
succinate dehydrogenase (SDH), sequence (O14521 57-159 partner): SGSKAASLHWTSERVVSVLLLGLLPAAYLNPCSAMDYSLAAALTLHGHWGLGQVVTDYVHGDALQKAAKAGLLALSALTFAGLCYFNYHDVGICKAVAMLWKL

As a reminder, the Ki is a measure of affinity in units of concentration, obtained from inhibition or displacement. On to `O=C(O)/C=C(\C(=O)O)c1ccccc1` [2-phenylmaleic acid, 2-Phenylmaleic acid], for which the Ki in data set [1] stood at 60 ± 30 µM.
As for `CC1CCC(C(=O)O)=C1C(=O)O` (centres unmarked) [3-Methyl-cyclopent-1-ene-1,2-dicarboxylic acid], in data set [1], the Ki is 0.335 µM.
Regarding `CC/C(=C/C(=O)O)C(=O)O` [(Z)-2-ethylbut-2-enedioic acid], the Ki in data set [1] worked out at 0.235 ± 0.021 µM. Also, in data set [2], the Cytotoxicity entry was “remains the same” and the “Selectivity index (CC50/IC50)” value was “increases”. For the same molecule, in [2] (dTHP1, LPS/IFNγ 24 hours, intracellular itaconate), the “ACOD1 inhibition in cellular model” value was “increased ACOD1 inhibition”. The “Mitochondrial ROS levels” value in [3] was “reduced to levels seen in uninfected WT cells”.
On to `C/C(=C/C(=O)O)C(=O)O` [citraconic acid], for which the “Reduction of CXCL10 mRNA” value in [4] is reported as “greatest”. The “Reduction of reactive oxygen species (ROS)” value in data set [5] is given as “significant reduction”. In data set [6], the STAT1 phosphorylation result is “reduced STAT1 phosphorylation”. Further, the “Induction of AKR1B10 mRNA (Nrf2 signaling)” value (“Induction of AKR1B10 mRNA” below) in data set [7] is “greatest”. For the same molecule, in [8], the “Viral RNA (hemagglutinin [HA] mRNA)” value is “not influenced” and the “Viral titres in culture supernatants” value is “significantly reduced”. Further, the “Direct binding to SDH” value in [9] is listed as “does not directly bind SDH”.
`O=C(O)C1=C(C(=O)O)CCC1` [cyclopent-1-ene-1,2-dicarboxylic acid, Cyclopent-1-ene-1,2-dicarboxylic acid]: in [1], the Ki came out at 39 ± 2 µM.
As for `C=C(CC(=O)O)C(=O)O` [itaconic acid], the “Reduction of reactive oxygen species (ROS)” value in [5] is listed as “significant reduction”. Besides, the STAT1 phosphorylation entry in data set [6] was “reduced STAT1 phosphorylation”. In data set [7], the “Induction of AKR1B10 mRNA” value is on record as “intermediate”.
For the molecule `C/C(=C\C(=O)O)C(=O)O` [mesaconic acid], the STAT1 phosphorylation result in data set [6] is reported as “reduced STAT1 phosphorylation”. Besides, the “Induction of AKR1B10 mRNA” value in data set [7] was “lowest”.

The values above are taken from patent publication US20240368065A1 (HELMHOLTZ-ZENTRUM FÜR INFEKTIONSFORSCHUNG GMBH, priority 2021, published 2024).
